Laboratory results as given in EP2926811A1, “ARTEMETHER-CONTAINING PHARMACEUTICAL COMPOSITION, PREPARATION, AND USE THEREOF” (Kunming Pharmaceutical Corp., priority 2012, dated 2014).
pIC50: −log10 of the molar value. Where two headings read alike, the source gives them in different places. One block for each molecule: values may come before it.

What was measured:
Format in all cases: cell-based
[1] = system: PC-3 cells; assay: modified MTT method, proliferation of PC-3 cells; conditions: Homo sapiens, read-out: IC50 on the growth of PC-3 cells
Method: (§1) Five test concentrations 2, 10, 50, 250 and 500 µM were set for each of five derivatives of artemisinin, artemether drug substance, artemisinin, dihydroartemisinin, artesunate were dissolved with dimethyl sulfoxide (DMSO), while the lyophilized powder of artemether was dissolved with normal saline (N.S.), followed by addition of a certain amount of RPMI 1640 complete culture solution to formulate a high-concentration solution, and each of the low-concentration solutions was formulated by proportionate dilution from the high-concentration solution.
(§2) The concentrations of DMSO contained in the solutions at the two relatively high concentrations 500 and 250 µM for the artemether drug substance, artemisinin, dihydroartemisinin, artesunate, used as solvent controls, were formulated with […] culture solution, at which time the test concentrations of DMSO were 1% and 0.5%. The concentrations of the excipients contained in the solutions at the two relatively high concentrations 500 and 250 µM for the preparation of lyophilized powder of artemether were used as solvent controls.
(§3) The positive control was an anti-cancer drug adriamycin (ADM), which was set at three test concentrations (final concentrations) of 0.1, 1 and 10 µg/ml. To ADM stock solution (1 mg/ml) a certain amount of PRMI 1640 complete culture solution was added, to formulate a high-concentration solution, and each of the low-concentration solutions were formulated by proportionate dilutions from the high-concentration solution.
(§4) HL-60: (human promyelocytic leukemia cell line); K562 (human chronic myelocytic leukemia cell line); HT-29 (human colon cancer cell line); PC-3 (human prostate cancer cell line); A549 (human non-small cell lung cancer cell line); MKN-28 (human gastric cancer cell line); Hep2 (human laryngeal cancer cell line), all of which were purchased from Cell Bank of Shanghai Institutes for Biological Sciences, the Chinese Academy of Sciences.
(§5) Influence of the five test samples on the proliferation of 7 human tumor cell lines was determined via a modified MTT method.
(§6) Cells in logarithmic growth phase were taken, adjusted to a certain concentration and then added into a 96 well culture plate. After culture of adherent cells for a period until adherence, the test samples were added; and for suspension cells, the test samples were added after inoculation. 5 test concentrations 2, 10, 50, 250 and 500 µM were set, with 3 parallel wells for each concentration, 10 µl/well; the solvent controls were 0.5% and 1% of isovolumetric DMSO, and the positive controls was ADM at 3 concentrations 0.1, 1 and 10 µg/ml. The samples were loaded followed by culture for a period of time in an incubator at 37°C, 5% CO2, followed by addition of MTT (5 mg/ml) at 20 µl/well, and continued to be cultured for a period of time and added with a three-combined solution [10% SDS - 5% isobutanol - 0.012 mol/L HCl (W/V/V)]. After dissolving in uniformity, it was continued to be placed in the incubator at 37°C, 5% CO2 for a period of time, and the OD value of each well was determined under a wavelength of 570 nm with a microplate reader, according to which the results were calculated.
(§7) The cellular proliferation inhibition rate was calculated in accordance with the following equation: Inhibition rate (%) = (OD valuecontrol well-OD valuesample well)/OD valuecontrol well × 100% [formula]
(§8) When the inhibition rate of DMSO on cells was more than 15%, calculation was carried out using the following equation: Inhibition rate (%) = (OD valuesolvent group-OD valueadministered well)/OD valuesolvent group × 100% [formula]
(§9) The inhibition rate was calculated by using Microsoft Excel 2003, and median inhibitory concentration IC50 was calculated with a LOGIT method, which was used as an indicator for judging the inhibitory capability.

[2] = system: K562 cells; assay: modified MTT method, proliferation of K562 cells; conditions: Homo sapiens, read-out: IC50 on the growth of K562 cells
Method: as §1, §2, §3, §4, §5, §6, §7, §8, §9

[3] = system: Hep2 cells; assay: modified MTT method, proliferation of Hep2 cells; conditions: Homo sapiens, HEp-2, 72 h, secondary screening
Method: as §1, §2, §3, §4, §5, §6, §7, §8, §9
(§10) According to the results of preliminary screening, further experiments were adjusted such that more sensitive cell lines were screened out. […]

[4] = system: HT-29 cells; assay: modified MTT method, proliferation of HT-29 cells; conditions: Homo sapiens
Method: as §1, §2, §3, §4, §5, §6, §7, §8, §9, §10

[5] = system: HL-60 cells; assay: modified MTT method, proliferation of HL-60 cells; conditions: Homo sapiens, read-out: IC50 on the growth of HL-60 cells
Method: as §1, §2, §3, §4, §5, §6, §7, §8, §9

[6] = system: A549 cells; assay: modified MTT method, proliferation of A549 cells; conditions: Homo sapiens, read-out: IC50 on the growth of A549 cells
Method: as §1, §2, §3, §4, §5, §6, §7, §8, §9

[7] = system: 7 human tumor cell lines; assay: modified MTT method, summary over the panel of human tumor cell lines; conditions: HL-60, K562, A549, HT-29, PC-3, MKN-28, Hep2
From the text: as §4, §5
Cells in logarithmic growth phase were taken, adjusted to a certain concentration and then added into a 96 well culture plate. After culture of adherent cells for a period until adherence, the test samples were added; and for suspension cells, the test samples were added after inoculation. […] After dissolving in uniformity, it was continued to be placed in the incubator at 37°C, 5% CO2 for a period of time, and the OD value of each well was determined under a wavelength of 570 nm with a microplate reader, according to which the results were calculated.
as §9

[8] = system: MKN-28 cells; assay: modified MTT method, proliferation of MKN-28 cells; conditions: Homo sapiens, MKN-28, 72 h, secondary screening
Method: as §1, §2, §3, §4, §5, §6, §7, §8, §9, §10

[9] = Batch 1, read-out: IC50 on the growth of Hep2 cells (72 h)
[10] = Batch 2, read-out: IC50 on the growth of Hep2 cells (72 h)
[11] = Batch 3, read-out: IC50 on the growth of Hep2 cells (72 h)
[12] = average, read-out: IC50 on the growth of Hep2 cells (72 h)
[13] = HT-29, 24 h, preliminary screening, Batch 1, 24 h, read-out: IC50 on the growth of HT-29 cells
[14] = HT-29, 24 h, preliminary screening, Batch 2, 24 h, read-out: IC50 on the growth of HT-29 cells
[15] = HT-29, 48 h, preliminary screening, Batch 1, 48 h, read-out: IC50 on the growth of HT-29 cells
[16] = HT-29, 48 h, preliminary screening, Batch 2, 48 h, read-out: IC50 on the growth of HT-29 cells
[17] = HT-29, 72 h, preliminary screening, Batch 1, 72 h, read-out: IC50 on the growth of HT-29 cells
[18] = HT-29, 72 h, preliminary screening, Batch 2, 72 h, read-out: IC50 on the growth of HT-29 cells
[19] = HT-29, 72 h, secondary screening, 72 h, Batch 1, read-out: IC50 on the growth of HT-29 cells (72 h)
[20] = HT-29, 72 h, secondary screening, 72 h, Batch 2, read-out: IC50 on the growth of HT-29 cells (72 h)
[21] = HT-29, 72 h, secondary screening, 72 h, Batch 3, read-out: IC50 on the growth of HT-29 cells (72 h)
[22] = HT-29, 72 h, secondary screening, 72 h, average, read-out: IC50 on the growth of HT-29 cells (72 h)
[23] = Average, read-out: IC50 on the growth of MKN-28 cells (72 h)
[24] = Batch 1, read-out: IC50 on the growth of MKN-28 cells (72 h)
[25] = Batch 2, read-out: IC50 on the growth of MKN-28 cells (72 h)
[26] = Batch 3, read-out: IC50 on the growth of MKN-28 cells (72 h)

pIC50 ([1]; PC-3, 24 h, Batch 1, 24 h): < 3.00
pIC50 ([1]; PC-3, 24 h, Batch 2, 24 h): < 3.00
pIC50 ([1]; PC-3, 48 h, Batch 1, 48 h): < 3.00
pIC50 ([1]; PC-3, 48 h, Batch 2, 48 h): < 3.00
pIC50 ([1]; PC-3, 72 h, Batch 1, 72 h): < 3.00
pIC50 ([1]; PC-3, 72 h, Batch 2, 72 h): < 3.00
pIC50 ([2]; K562, 24 h, Batch 1, 24 h): < 3.00
pIC50 ([2]; K562, 24 h, Batch 2, 24 h): < 3.00
pIC50 ([2]; K562, 24 h, Batch 3, 24 h): < 3.00
pIC50 ([2]; K562, 48 h, Batch 1, 48 h): < 3.00
pIC50 ([2]; K562, 48 h, Batch 2, 48 h): < 3.00
pIC50 ([2]; K562, 48 h, Batch 3, 48 h): 3.00
pIC50 ([2]; K562, 72 h, Batch 1, 72 h): < 3.00
pIC50 ([2]; K562, 72 h, Batch 2, 72 h): 3.29
pIC50 ([2]; K562, 72 h, Batch 3, 72 h): 3.35
pIC50 [4, 13]: < 3.00
pIC50 [4, 14]: < 3.00
pIC50 [4, 15]: < 3.00
pIC50 [4, 16]: < 3.00
pIC50 [4, 17]: < 3.00
pIC50 [4, 18]: < 3.00
pIC50 [4, 19]: 2.63
pIC50 [4, 20]: 3.11
pIC50 [4, 21]: 3.36
pIC50 [4, 22]: 3.26
pIC50 ([5]; HL-60, 24 h, Batch 1, 24 h): < 3.00
pIC50 ([5]; HL-60, 24 h, Batch 2, 24 h): 3.12
pIC50 ([5]; HL-60, 48 h, Batch 1, 48 h): < 3.00
pIC50 ([5]; HL-60, 48 h, Batch 2, 48 h): 3.48
pIC50 ([5]; HL-60, 72 h, Batch 1, 72 h): < 3.00
pIC50 ([5]; HL-60, 72 h, Batch 2, 72 h): 3.24
pIC50 ([6]; A549, 24 h, Batch 1, 24 h): < 3.00
pIC50 ([6]; A549, 24 h, Batch 2, 24 h): 3.38
pIC50 ([6]; A549, 48 h, Batch 1, 48 h): < 3.00
pIC50 ([6]; A549, 48 h, Batch 2, 48 h): < 3.00
pIC50 ([6]; A549, 72 h, Batch 1, 72 h): < 3.00
pIC50 ([6]; A549, 72 h, Batch 2, 72 h): < 3.00
pIC50 [8, 23]: 3.01
pIC50 [8, 24]: 3.23
pIC50 [8, 25]: 2.84
pIC50 [8, 26]: 2.79
SMILES: C[C@@H]1CC[C@H]2[C@@H](C)C(=O)O[C@@H]3O[C@@]4(C)CC[C@@H]1[C@]32OO4 [artemisinin]
pIC50 [3, 9]: 3.46
pIC50 [3, 10]: 3.57
pIC50 [3, 11]: < 3.00
pIC50 [3, 12]: 3.02
inhibitory effect on the 7 human tumor cell lines in vitro [7]: no apparent inhibitory effect

pIC50 ([1]; PC-3, 24 h, Batch 1, 24 h): 4.48
pIC50 ([1]; PC-3, 24 h, Batch 2, 24 h): 4.32
pIC50 ([1]; PC-3, 48 h, Batch 1, 48 h): 5.12
pIC50 ([1]; PC-3, 48 h, Batch 2, 48 h): 5.02
pIC50 ([1]; PC-3, 72 h, Batch 1, 72 h): 5.50
pIC50 ([1]; PC-3, 72 h, Batch 2, 72 h): 5.43
pIC50 ([2]; K562, 24 h, Batch 1, 24 h): 5.15
pIC50 ([2]; K562, 24 h, Batch 2, 24 h): 5.24
pIC50 ([2]; K562, 24 h, Batch 3, 24 h): 5.59
pIC50 ([2]; K562, 48 h, Batch 1, 48 h): 5.72
pIC50 ([2]; K562, 48 h, Batch 2, 48 h): 6.62
pIC50 ([2]; K562, 48 h, Batch 3, 48 h): 5.77
pIC50 ([2]; K562, 72 h, Batch 1, 72 h): 6.77
pIC50 ([2]; K562, 72 h, Batch 2, 72 h): 8.00
pIC50 ([2]; K562, 72 h, Batch 3, 72 h): 6.13
pIC50 [4, 13]: 5.64
pIC50 [4, 14]: 5.42
pIC50 [4, 15]: 6.55
pIC50 [4, 16]: 6.23
pIC50 [4, 17]: 7.24
pIC50 [4, 18]: 6.96
pIC50 [4, 19]: 6.96
pIC50 [4, 20]: 6.72
pIC50 [4, 21]: 6.92
pIC50 [4, 22]: 6.96
pIC50 ([5]; HL-60, 24 h, Batch 1, 24 h): 5.03
pIC50 ([5]; HL-60, 24 h, Batch 2, 24 h): 5.38
pIC50 ([5]; HL-60, 48 h, Batch 1, 48 h): 5.76
pIC50 ([5]; HL-60, 48 h, Batch 2, 48 h): 6.80
pIC50 ([5]; HL-60, 72 h, Batch 1, 72 h): 6.11
pIC50 ([5]; HL-60, 72 h, Batch 2, 72 h): 6.24
pIC50 ([6]; A549, 24 h, Batch 1, 24 h): 4.41
pIC50 ([6]; A549, 24 h, Batch 2, 24 h): < 4.00
pIC50 ([6]; A549, 48 h, Batch 1, 48 h): 4.97
pIC50 ([6]; A549, 48 h, Batch 2, 48 h): 6.21
pIC50 ([6]; A549, 72 h, Batch 1, 72 h): 6.12
pIC50 ([6]; A549, 72 h, Batch 2, 72 h): 6.72
pIC50 [8, 23]: 6.29
pIC50 [8, 24]: 6.28
pIC50 [8, 25]: 6.28
pIC50 [8, 26]: 6.33
SMILES: COc1cccc2c1C(=O)c1c(O)c3c(c(O)c1C2=O)C[C@@](O)(C(=O)CO)C[C@@H]3O[C@H]1C[C@H](N)[C@H](O)[C@H](C)O1 [ADM, adriamycin]
pIC50 [3, 9]: 6.39
pIC50 [3, 10]: 6.59
pIC50 [3, 11]: 6.00
pIC50 [3, 12]: 6.29
